≈ marks a conversion by molar mass, not a printed value. Where two headings read alike, the source gives them in different places.
Tests used:
Escherichia coli EC14 = assay: standard agar-dilution MIC assay; type: cell-based
Procedure: (§1) The MIC's in Table III were determined by standard agar-dilution assays. The MIC's in Table IV were obtained using conventional brothdilution microtiter tests.

[1] = test system: Haemophilus influenzae 76; assay: standard agar-dilution MIC assay; type: cell-based; conditions: Haemophilus influenzae, 76
Procedure: as §1

[2] = test system: Haemophilus influenzae C.L.; assay: standard agar-dilution MIC assay; type: cell-based; conditions: Haemophilus influenzae
Procedure: as §1

[3] = test system: Klebsiella pneumoniae X68; assay: standard agar-dilution MIC assay; type: cell-based; conditions: Klebsiella pneumoniae, X68
Procedure: as §1

[4] = test system: Pseudomonas aeruginosa X239; assay: standard agar-dilution MIC assay; type: cell-based; conditions: Pseudomonas aeruginosa, X239
Procedure: as §1

[5] = test system: Staphylococcus aureus V41; assay: standard agar-dilution MIC assay; type: cell-based; conditions: Staphylococcus aureus, V41
Procedure: as §1

[6] = test system: Staphylococcus aureus X1.1; assay: standard agar-dilution MIC assay; type: cell-based; conditions: Staphylococcus aureus, X1.1
Procedure: as §1

[7] = test system: Staphylococcus aureus X400; assay: standard agar-dilution MIC assay; type: cell-based; conditions: Staphylococcus aureus, X400
Procedure: as §1

[8] = test system: Staphylococcus epidermidis EP12; assay: standard agar-dilution MIC assay; type: cell-based
Procedure: as §1

[9] = test system: Staphylococcus epidermidis EPI1; assay: standard agar-dilution MIC assay; type: cell-based; conditions: Staphylococcus epidermidis, EPI1
Procedure: as §1

[10] = test system: Streptococcus Group D 9960; assay: standard agar-dilution MIC assay; type: cell-based; conditions: GROUPD9960, read-out: MIC
Procedure: as §1

[11] = test system: Streptococcus Group D X66; assay: standard agar-dilution MIC assay; type: cell-based; conditions: read-out: MIC
Procedure: as §1

[12] = test system: Streptococcus pyogenes C203; assay: standard agar-dilution MIC assay; type: cell-based; conditions: Streptococcus pyogenes, C203
Procedure: as §1

[13] = test system: Staphylococcus aureus S13E; assay: microbe, parasite or virus in culture; type: cell-based; conditions: Staphylococcus aureus, S13E
Procedure: as §1

[14] = test system: Streptococcus pneumoniae Park I; assay: microbe, parasite or virus in culture; type: cell-based; conditions: Streptococcus pneumoniae
Procedure: as §1

[15] = test system: Bordetella bronchiseptica; assay: broth-dilution microtiter MIC test; type: cell-based; conditions: Bordetella bronchiseptica
Procedure: as §1

[16] = test system: Mycoplasma gallisepticum 15E; assay: broth-dilution microtiter MIC test; type: cell-based; conditions: Mycoplasmoides gallisepticum, 15E
Procedure: as §1

[17] = test system: Mycoplasma gallisepticum 29C; assay: broth-dilution microtiter MIC test; type: cell-based; conditions: Mycoplasmoides gallisepticum, 29C
Procedure: as §1

[18] = test system: Mycoplasma gallisepticum 36H; assay: broth-dilution microtiter MIC test; type: cell-based; conditions: Mycoplasmoides gallisepticum, 36H
Procedure: as §1

Mycoplasma hyorhinis 29E = assay: broth-dilution microtiter MIC test; type: cell-based; conditions: Mycoplasma, 29E
Procedure: as §1

Mycoplasma synoviae 40A = assay: broth-dilution microtiter MIC test; type: cell-based; conditions: Mycoplasmopsis synoviae, 40A
Procedure: as §1

[19] = test system: Pasteurella hemolytica 22C; assay: broth-dilution microtiter MIC test; type: cell-based; conditions: Pasteurella, 22C
Procedure: as §1

[20] = test system: Pasteurella hemolytica 23C; assay: broth-dilution microtiter MIC test; type: cell-based; conditions: Pasteurella, 23C
Procedure: as §1

[21] = test system: Pasteurella hemolytica 41D; assay: broth-dilution microtiter MIC test; type: cell-based; conditions: Pasteurella, 41D
Procedure: as §1

[22] = test system: Pasteurella multocida 17E; assay: broth-dilution microtiter MIC test; type: cell-based; conditions: Pasteurella multocida, 17E
Procedure: as §1

[23] = test system: Pasteurella multocida 22A; assay: broth-dilution microtiter MIC test; type: cell-based; conditions: Pasteurella multocida, 22A
Procedure: as §1

[24] = test system: Pasteurella multocida 40G; assay: broth-dilution microtiter MIC test; type: cell-based; conditions: Pasteurella multocida, 40G
Procedure: as §1

[25] = test system: Pasteurella multocida 60A; assay: broth-dilution microtiter MIC test; type: cell-based; conditions: Pasteurella multocida, 60A
Procedure: as §1

[26] = test system: Pasteurella multocida 68C; assay: broth-dilution microtiter MIC test; type: cell-based; conditions: Pasteurella multocida, 68C
Procedure: as §1

[27] = test system: Staphylococcus aureus 19C; assay: broth-dilution microtiter MIC test; type: cell-based; conditions: Staphylococcus aureus, 19C
Procedure: as §1

Streptococcus sp. 19F = assay: broth-dilution microtiter MIC test; type: cell-based; conditions: Streptococcus, SP.19F
Procedure: as §1

[28] = test system: Streptococcus pyogenes C203; assay: protection of mice experimentally infected with S. pyogenes C203; type: in vivo; conditions: mice, mg/kg × 2, doses given 1 and 4 hours postinfection, read-out: ED50
Procedure: The formula 1 compounds have shown in vivo antimicrobial activity against experimentally-induced infections in laboratory animals. When two doses of test compound were administered to mice experimentally infected with S. pyrogenes C203, the activity observed was measured as an ED50 value [effective dose in mg/kg to protect 50% of the test animals: see Warren Wick, et al., J. Bacteriol. 81, 233-235 (1961)].
^a mg/kg × 2; doses given 1 and 4 hours postinfection

[29] = broth-dilution microtiter, read-out: MIC
[30] = broth-dilution microtiter, Avian isolate, read-out: MIC

CCC1OC(=O)CC(O)C(C)C(OC2OC(C)C(OC3CC(C)(O)C(O)C(C)O3)C(N(C)C)C2OC(C)=O)C(CC=O)CC(C)C(=O)C=CC(C)=CC1COC1OC(C)C(OC(C)=O)C(OC(C)=O)C1OC (stereo not drawn) [Compound 3, 2',3'",4'"-Tri-O-acetyl-macrocin]
MIC (Escherichia coli EC14; agar-dilution, read-out: MIC): > 128 µg/mL
MIC ([1]; agar-dilution, Ampicillin-resistant strain, read-out: MIC): 2 µg/mL (≈ 1.95 µM)
MIC ([2]; agar-dilution, Ampicillin-sensitive strain, read-out: MIC): > 128 µg/mL
MIC ([3]; agar-dilution, read-out: MIC): > 128 µg/mL
MIC ([4]; agar-dilution, read-out: MIC): > 128 µg/mL
MIC ([5]; agar-dilution, Penicillin-resistant strain, read-out: MIC): 2 µg/mL (≈ 1.95 µM)
MIC ([6]; agar-dilution, read-out: MIC): 2 µg/mL (≈ 1.95 µM)
MIC [7]: 4 µg/mL (≈ 3.89 µM)
MIC ([8]; agar-dilution, read-out: MIC): 2 µg/mL (≈ 1.95 µM)
MIC ([9]; agar-dilution, read-out: MIC): 2 µg/mL (≈ 1.95 µM)
MIC [10]: 4 µg/mL (≈ 3.89 µM)
MIC [11]: 8 µg/mL (≈ 7.78 µM)
MIC ([12]; agar-dilution, read-out: MIC): 1 µg/mL (≈ 0.973 µM)
MIC [13]: 4 µg/mL (≈ 3.89 µM)
MIC ([14]; agar-dilution, read-out: MIC): 1 µg/mL (≈ 0.973 µM)
MIC [15, 29]: > 50 µg/mL
MIC [16, 29]: > 50 µg/mL
MIC [17]: 3.12 µg/mL (≈ 3.03 µM)
MIC [18, 29]: > 50 µg/mL
MIC (Mycoplasma hyorhinis 29E): 25 µg/mL (≈ 24.3 µM)
MIC (Mycoplasma synoviae 40A; [29]): 12.5 µg/mL (≈ 12.2 µM)
MIC [19, 29]: > 50 µg/mL
MIC [20, 29]: > 50 µg/mL
MIC [21, 29]: > 50 µg/mL
MIC ([22]; broth-dilution microtiter, Bovine isolate, read-out: MIC): > 50 µg/mL
MIC [23, 29]: > 50 µg/mL
MIC [24, 29]: > 50 µg/mL
MIC [25, 30]: > 50 µg/mL
MIC [26, 29]: > 50 µg/mL
MIC [27, 29]: 6.25 µg/mL (≈ 6.08 µM)
MIC (Streptococcus sp. 19F): 3.12 µg/mL (≈ 3.03 µM)

CCC1OC(=O)CC(O)C(C)C(OC2OC(C)C(OC3CC(C)(O)C(O)C(C)O3)C(N(C)C)C2OC(C)=O)C(CC=O)CC(C)C(=O)C=CC(C)=CC1COC1OC(C)C(OC(=O)Cc2ccccc2)C(OC(=O)Cc2ccccc2)C1OC (stereo not drawn) [Compound 11, 2'-O-Acetyl-3'",4'"-di-O-phenylacetylmacrocin]
MIC (Escherichia coli EC14): > 128 µg/mL
MIC [1]: > 128 µg/mL
MIC [2]: > 128 µg/mL
MIC [3]: > 128 µg/mL
MIC [4]: > 128 µg/mL
MIC [5]: 16 µg/mL (≈ 13.6 µM)
MIC [6]: 16 µg/mL (≈ 13.6 µM)
MIC [7]: 64 µg/mL (≈ 54.2 µM)
MIC [8]: 32 µg/mL (≈ 27.1 µM)
MIC [9]: 32 µg/mL (≈ 27.1 µM)
MIC [10]: 16 µg/mL (≈ 13.6 µM)
MIC [11]: 32 µg/mL (≈ 27.1 µM)
MIC [12]: 4 µg/mL (≈ 3.39 µM)
MIC [13]: 32 µg/mL (≈ 27.1 µM)
MIC [14]: 1 µg/mL (≈ 0.847 µM)
MIC [15]: > 50 µg/mL
MIC [16]: 25 µg/mL (≈ 21.2 µM)
MIC [17]: 3.12 µg/mL (≈ 2.64 µM)
MIC [18]: 50 µg/mL (≈ 42.4 µM)
MIC (Mycoplasma hyorhinis 29E): 12.5 µg/mL (≈ 10.6 µM)
MIC (Mycoplasma synoviae 40A): 12.5 µg/mL (≈ 10.6 µM)
MIC [19]: > 50 µg/mL
MIC [20]: > 50 µg/mL
MIC [21]: > 50 µg/mL
MIC [22]: > 50 µg/mL
MIC [23]: > 50 µg/mL
MIC [24]: > 50 µg/mL
MIC [25]: > 50 µg/mL
MIC [26]: > 50 µg/mL
MIC [27]: 50 µg/mL (≈ 42.4 µM)
MIC (Streptococcus sp. 19F): 3.12 µg/mL (≈ 2.64 µM)

CCC1OC(=O)CC(O)C(C)C(OC2OC(C)C(OC3CC(C)(O)C(O)C(C)O3)C(N(C)C)C2OC(C)=O)C(CC=O)CC(C)C(=O)C=CC(C)=CC1COC1OC(C)C(OC(=O)COc2ccccc2)C(O)C1OC (stereo not drawn) [Compound 13, 2'-O-Acetyl-4'"-O-phenoxyacetyl-macrocin]
MIC (Escherichia coli EC14; agar-dilution, read-out: MIC): > 128 µg/mL
MIC ([3]; agar-dilution, read-out: MIC): > 128 µg/mL
MIC ([4]; agar-dilution, read-out: MIC): > 128 µg/mL
MIC [5]: 1 µg/mL (≈ 0.927 µM)
MIC [6]: 1 µg/mL (≈ 0.927 µM)
MIC [7]: 2 µg/mL (≈ 1.85 µM)
MIC [8]: 2 µg/mL (≈ 1.85 µM)
MIC [9]: 1 µg/mL (≈ 0.927 µM)
MIC [10]: 1 µg/mL (≈ 0.927 µM)
MIC [11]: 1 µg/mL (≈ 0.927 µM)
MIC [12]: 1 µg/mL (≈ 0.927 µM)
MIC [13]: 2 µg/mL (≈ 1.85 µM)
MIC [14]: 0.25 µg/mL (≈ 0.232 µM)
MIC [15, 29]: > 50 µg/mL
MIC [16]: 12.5 µg/mL (≈ 11.6 µM)
MIC [17]: 0.39 µg/mL (≈ 0.362 µM)
MIC [18]: 12.5 µg/mL (≈ 11.6 µM)
MIC (Mycoplasma hyorhinis 29E): 3.12 µg/mL (≈ 2.89 µM)
MIC (Mycoplasma synoviae 40A): 0.39 µg/mL (≈ 0.362 µM)
MIC [19, 29]: > 50 µg/mL
MIC [20, 29]: > 50 µg/mL
MIC [21, 29]: > 50 µg/mL
MIC [22]: 50 µg/mL (≈ 46.4 µM)
MIC [23, 29]: > 50 µg/mL
MIC [24, 29]: > 50 µg/mL
MIC [25, 30]: > 50 µg/mL
MIC [26]: 50 µg/mL (≈ 46.4 µM)
MIC [27]: 3.12 µg/mL (≈ 2.89 µM)
MIC (Streptococcus sp. 19F): 1.56 µg/mL (≈ 1.45 µM)
ED50 ([28]; C203, Oral): > 100 mg/kg
ED50 ([28]; C203, sc, Subcutaneous): 7.2 mg/kg
